The results in this text go back to patent US9394254B2, “Antibiotic and anti-parasitic agents that modulate class II fructose 1,6-bisphosphate aldolase” (priority 2013, dated 2016).

The target in assay [1] is class I FBA (Oryctolagus cuniculus (Rabbit), UniProt P00883). As to the kind of experiment: Inhibition of class I FBA from rabbit muscle. The following applies: concentrations as high as 1 mM. It is filed as biochemical.
Assay [2] can be described thus: Calorimetric titration into MtFBA buffer with 200 μM ZnCl2 (no enzyme). The following applies: 1 mM compound titrated into MtFBA buffer with 200 μM ZnCl2, 25° C. It is filed as binding. Here is the method: FIG. 5 provides data from the calorimetric titration of HCA. […] Top graphs represent raw heat data and bottom graphs are integrated heat peaks gained at 25° C.
Top graphs represent raw heat data and bottom graphs are integrated heat peaks gained at 25° C. from 25 injections of Regis 5 into 170 μL of 20 mM Tricine pH 8.0, 100 mM NaCl, and either (a) 700 μM MtFBA with 100 μM ZnCl2 or (b) 200 μM ZnCl2. Data sets were collected in duplicate, analyzed with NanoAnalyze™ software, and fit to an independent model concurrently with a bank constant model to adjust for a heat of dilution.

The target of assay [3] is class IIa FBA isolated from E. coli (Escherichia coli (strain K12), UniProt P0AB71). As to the kind of experiment: Inhibition of class IIa FBA from E. coli. It is filed as biochemical. The following applies: 25 μM HCA. Here is the method: Class II FBAs can be broken down into two families (a/b) whose distribution among bacterium is independent of Gram staining determined phylogenetic groups. In this illustration, a single concentration of HCA at 25 μM was tested for the inhibition of class IIa FBA isolated from E. coli and class IIb FBA originating from methicillin-resistant S. aureus (MRSA).
Chain of class IIa FBA isolated from E. coli (P0AB71 whole entry, looked up): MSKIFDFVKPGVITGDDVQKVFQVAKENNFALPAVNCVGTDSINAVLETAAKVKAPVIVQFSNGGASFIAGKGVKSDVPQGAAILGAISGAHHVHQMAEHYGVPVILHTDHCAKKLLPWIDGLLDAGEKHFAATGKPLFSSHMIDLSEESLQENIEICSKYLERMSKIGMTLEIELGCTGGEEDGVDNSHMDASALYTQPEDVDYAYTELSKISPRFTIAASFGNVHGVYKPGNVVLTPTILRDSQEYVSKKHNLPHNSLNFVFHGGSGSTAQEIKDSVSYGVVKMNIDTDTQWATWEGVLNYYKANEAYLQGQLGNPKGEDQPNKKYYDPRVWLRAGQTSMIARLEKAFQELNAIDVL
Error bars represent standard deviations from the average.

In assay [4] the test system is class I FBA. The following applies: human muscle, concentrations as high as 1 mM.
In assay [5] the target is T1, MtFBA (Mycobacterium tuberculosis (strain ATCC 25618 / H37Rv), UniProt P9WQA3). It is filed as binding. The following applies: 25° C.
The target of assay [6] is T1, MtFBA. Kind of assay: MtFBA enzyme inhibition. Type of assay: biochemical. Particulars: for % Inhibition at 1 mM: 1 mM compound.

The % inhibition is the change of the read-out against control, counted positive when it falls. Low readings indicate a response near the control, high ones a response far below the control. A word on the Kd: it is the constant that tells how readily two partners part at equilibrium. By IC50 is commonly meant the midpoint of a concentration-inhibition curve. A lower IC50 goes with higher potency. By inhibition is commonly meant the percentage by which the read-out fell short of the control. The % Inhibition is the share of the control response that was lost under treatment.

Chain of class I FBA (Oryctolagus cuniculus (Rabbit), UniProt P00883) (P00883 whole entry, looked up): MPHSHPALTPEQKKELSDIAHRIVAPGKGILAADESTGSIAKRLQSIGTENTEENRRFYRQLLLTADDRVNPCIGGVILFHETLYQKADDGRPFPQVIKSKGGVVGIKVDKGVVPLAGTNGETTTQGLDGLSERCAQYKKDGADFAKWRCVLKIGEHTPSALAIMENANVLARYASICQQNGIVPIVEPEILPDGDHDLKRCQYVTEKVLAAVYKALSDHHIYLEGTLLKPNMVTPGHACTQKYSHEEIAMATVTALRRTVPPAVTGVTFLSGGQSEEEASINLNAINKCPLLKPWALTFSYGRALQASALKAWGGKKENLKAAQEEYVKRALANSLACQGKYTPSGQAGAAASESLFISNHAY

Regarding `O=C(O)c1ccc2cccc(O)c2n1` [Compound 5], the “inhibition of class I FBA” value at class I FBA [1] and in the assay with class I FBA [4] was “no inhibitory affects” throughout. The “binding to buffer Zn(II)” value in assay [2] is listed as “no appreciable binding”. In assay [3], the “% inhibition” value is on record as 42.2±2.8%. On MtFBA [5], the “n (ITC stoichiometry)” value is 0.94±0.14. For the same molecule, the ΔH on MtFBA [5] (ITC) is -6.867 ± 0.139 kcal/mol. This molecule also had a ΔS at MtFBA [5] (ITC) of 2.44±3.12 J mol^−1 K^−1. Also, the Kd at MtFBA [5] (ITC, 5 mM compound into 700 μM MtFBA, 20 mM Tricine pH 8.0, 100 mM NaCl, 100 μM ZnCl2, read-out: dissociation constant Kd) was found to be 6.94 ± 0.97 µM. Further, the concentration for half-maximal inhibition (IC50) turned out to be 17 ± 2.1 µM on MtFBA [6] (FIG. 6A inset, serial dilutions of compound) and 14 ± 2 µM against MtFBA [6] (SAR table). Also, the inhibition at 1000 µM at MtFBA [6] (read-out: % Inhibition at 1 mM) stood at 95 ± 4.1%.

Regarding `O=C(O)c1ccc2cc(F)cc(O)c2n1` [Compound 6F-HCA, 6-fluoro-8-hydroxyquinoline-2-carboxylic acid], the “increase in potency toward the enzyme relative to HCA” value at MtFBA [6] (fluorine at position 6 versus HCA) was 50%.

As for `Oc1cccc2cccnc12` [Compound 6], the “% Inhibition at 1 mM” value at MtFBA [6] is listed as 54 ± 18%. In addition, half-maximal inhibition at MtFBA [6] (SAR table) (IC50) was put at 300 ± 67 µM.

As for `Nc1cccc2cccnc12` [Compound 18], on MtFBA [6], the “% Inhibition at 1 mM” value is listed as 68 ± 2.2%. The same molecule registered a half-inhibitory concentration (IC50) on MtFBA [6] (SAR table) of 79 ± 10 µM.

Turning to `CS(=O)(=O)Nc1ccc2cccc(O)c2n1` [Compound 34], the “% Inhibition at 1 mM” value at MtFBA [6] worked out at 12 ± 5.4%. Moreover, the concentration for half-maximal inhibition (IC50) at MtFBA [6] (SAR table) was found to be 570 ± 87 µM.
